Source: patent US20250176550A1, “HERBICIDE COMPOSITION OF URACIL COMPOUND CONTAINING CARBOXYLATE FRAGMENT AND THE USE THEREOF” (Jiangsu Flag Chemical Industry Co., Ltd., priority 2022, published 2025)

What was measured:
Assay in all cases: Indoor virulence and combined effect, greenhouse pot test, post-emergence stem and leaf spray, fresh weight inhibition
Format in all cases: in vivo
alopecurus japonicus = system: alopecurus japonicus
Method in brief: (§1)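 Weeds in greenhouse pots received a spray-tower treatment, either post-emergence at the 3–4 leaf (grasses) or 4–6 leaf (broadleaf) stage, or pre-emergence as a soil spray 24 h after sowing. Compounds were applied in acetone diluted with 0.1 wt% Tween-80 water, alone or mixed, in g/ha. Fresh weight inhibition was measured at 21 days, with synergy judged by Gowing expected efficacy (E−E0 >10%).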

digitaria sanguinalis = settings: for Fresh weight suppression rate %, A single agent: Table 14
Method in brief: as §1

eleusine indica = system: eleusine indica
Method in brief: as §1

lolium multiflorum = system: lolium multiflorum
Method in brief: as §1

echinochloa crusgalli = system: echinochloa crusgalli
Method in brief: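 Greenhouse potted weeds sprayed post-emergence on stem and leaf at 3–4 leaf stage, with A and B alone or mixed; acetone solutions diluted in 0.1 wt% Tween-80, solvent-emulsifier water as blank.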

SMILES: COCCOC(=O)C(C)(C)OC(=O)c1cc(-n2c(=O)cc(C(F)(F)F)n(C)c2=O)c(F)cc1Cl [Compound A-273]
- Fresh weight inhibition rate %, A single agent (alopecurus japonicus; Table 5, 15 g a.i./ha, post-emergence, 21 days after treatment): 44.57%
- Fresh weight inhibition rate %, A single agent (alopecurus japonicus; Table 5, 20 g a.i./ha, post-emergence, 21 days after treatment): 61.55%
- Fresh weight inhibition rate %, A single agent (alopecurus japonicus; Table 5, 25 g a.i./ha, post-emergence, 21 days after treatment): 72.42%
- Fresh weight inhibition rate %, A single agent (alopecurus japonicus; Table 25, A 15 g a.i./ha): 44.57%
- Fresh weight inhibition rate %, A single agent (alopecurus japonicus; Table 25, A 20 g a.i./ha): 61.55%
- Fresh weight inhibition rate %, A single agent (alopecurus japonicus; Table 25, A 25 g a.i./ha): 72.42%
- Fresh weight inhibition rate %, A single agent (alopecurus japonicus; Table 25, A 30 g a.i./ha): 86.91%
- Fresh weight inhibition rate %, A single agent (digitaria sanguinalis; Table 1, 10 g a.i./ha, post-emergence, 21 days after treatment): 45.50%
- Fresh weight inhibition rate %, A single agent (digitaria sanguinalis; Table 1, 12.5 g a.i./ha, post-emergence, 21 days after treatment): 55.30%
- Fresh weight inhibition rate %, A single agent (digitaria sanguinalis; Table 1, 20 g a.i./ha, post-emergence, 21 days after treatment): 60.47%
- Fresh weight inhibition rate %, A single agent (digitaria sanguinalis; Table 1, 25 g a.i./ha, post-emergence, 21 days after treatment): 62.48%
- Fresh weight inhibition rate %, A single agent (digitaria sanguinalis; Table 13, A 20 g a.i./ha): 60.47%
- Fresh weight inhibition rate %, A single agent (digitaria sanguinalis; Table 13, A 25 g a.i./ha): 62.48%
- Fresh weight inhibition rate %, A single agent (digitaria sanguinalis; Table 13, A 30 g a.i./ha): 63.97%
- Fresh weight suppression rate %, A single agent (digitaria sanguinalis; A 10 g a.i./ha): 31.16%
- Fresh weight suppression rate %, A single agent (digitaria sanguinalis; A 15 g a.i./ha): 59.30%
- Fresh weight suppression rate %, A single agent (digitaria sanguinalis; A 20 g a.i./ha): 60.47%
- Fresh weight suppression rate %, A single agent (digitaria sanguinalis; A 30 g a.i./ha): 65.40%
- Fresh weight inhibition rate %, A single agent (digitaria sanguinalis; Table 15, A 15 g a.i./ha): 59.3%
- Fresh weight inhibition rate %, A single agent (digitaria sanguinalis; Table 15, A 20 g a.i./ha): 60.47%
- Fresh weight inhibition rate %, A single agent (digitaria sanguinalis; Table 15, A 25 g a.i./ha): 62.48%
- Fresh weight inhibition rate %, A single agent (digitaria sanguinalis; Table 16, A 10 g a.i./ha): 9.55%
- Fresh weight inhibition rate %, A single agent (digitaria sanguinalis; Table 16, A 20 g a.i./ha): 45.07%
- Fresh weight inhibition rate %, A single agent (digitaria sanguinalis; Table 16, A 25 g a.i./ha): 58.81%
- Fresh weight inhibition rate %, A single agent (digitaria sanguinalis; Table 16, A 30 g a.i./ha): 60.30%
- Fresh weight inhibition rate %, A single agent (digitaria sanguinalis; Table 41, A 10 g a.i./ha): 45.50%
- Fresh weight inhibition rate %, A single agent (digitaria sanguinalis; Table 41, A 15 g a.i./ha): 59.30%
- Fresh weight inhibition rate %, A single agent (digitaria sanguinalis; Table 41, A 20 g a.i./ha): 60.47%
- Fresh weight inhibition rate %, A single agent (digitaria sanguinalis; Table 41, A 25 g a.i./ha): 62.48%
- Fresh weight inhibition rate %, A single agent (eleusine indica; Table 18, A 5 g a.i./ha): 34.65%
- Fresh weight inhibition rate %, A single agent (eleusine indica; Table 18, A 10 g a.i./ha): 43.34%
- Fresh weight inhibition rate %, A single agent (eleusine indica; Table 18, A 15 g a.i./ha): 55.00%
- Fresh weight inhibition rate %, A single agent (eleusine indica; Table 18, A 20 g a.i./ha): 68.03%
- Fresh weight inhibition rate %, A single agent (eleusine indica; Table 32, A 15 g a.i./ha): 55.00%
- Fresh weight inhibition rate %, A single agent (eleusine indica; Table 32, A 20 g a.i./ha): 68.03%
- Fresh weight inhibition rate %, A single agent (eleusine indica; Table 32, A 25 g a.i./ha): 70.36%
- Fresh weight inhibition rate %, A single agent (eleusine indica; Table 33, A 10 g a.i./ha): 43.34%
- Fresh weight inhibition rate %, A single agent (eleusine indica; Table 33, A 15 g a.i./ha): 55.00%
- Fresh weight inhibition rate %, A single agent (eleusine indica; Table 33, A 20 g a.i./ha): 68.03%
- Fresh weight inhibition rate %, A single agent (eleusine indica; Table 33, A 25 g a.i./ha): 70.36%
- Fresh weight inhibition rate %, A single agent (eleusine indica; Table 33, A 30 g a.i./ha): 75.35%
- Fresh weight inhibition rate %, A single agent (eleusine indica; Table 35, A 10 g a.i./ha): 43.34%
- Fresh weight inhibition rate %, A single agent (eleusine indica; Table 35, A 15 g a.i./ha): 55.00%
- Fresh weight inhibition rate %, A single agent (eleusine indica; Table 35, A 20 g a.i./ha): 68.03%
- Fresh weight inhibition rate %, A single agent (eleusine indica; Table 35, A 25 g a.i./ha): 70.36%
- Fresh weight inhibition rate %, A single agent (eleusine indica; Table 36, A 5 g a.i./ha): 34.65%
- Fresh weight inhibition rate %, A single agent (eleusine indica; Table 36, A 10 g a.i./ha): 43.34%
- Fresh weight inhibition rate %, A single agent (eleusine indica; Table 36, A 15 g a.i./ha): 55.00%
- Fresh weight inhibition rate %, A single agent (eleusine indica; Table 36, A 20 g a.i./ha): 68.03%
- Fresh weight inhibition rate %, A single agent (eleusine indica; Table 36, A 25 g a.i./ha): 70.36%
- Fresh weight inhibition rate %, A single agent (lolium multiflorum; Table 19, A 5 g a.i./ha): 22.25%
- Fresh weight inhibition rate %, A single agent (lolium multiflorum; Table 19, A 10 g a.i./ha): 50.48%
- Fresh weight inhibition rate %, A single agent (lolium multiflorum; Table 19, A 15 g a.i./ha): 55.50%
- Fresh weight inhibition rate %, A single agent (lolium multiflorum; Table 19, A 20 g a.i./ha): 60.05%
- Fresh weight inhibition rate %, A single agent (lolium multiflorum; Table 20, A 5 g a.i./ha): 22.25%
- Fresh weight inhibition rate %, A single agent (lolium multiflorum; Table 20, A 10 g a.i./ha): 50.48%
- Fresh weight inhibition rate %, A single agent (lolium multiflorum; Table 20, A 15 g a.i./ha): 55.50%
- Fresh weight inhibition rate %, A single agent (lolium multiflorum; Table 20, A 20 g a.i./ha): 60.05%
- Fresh weight inhibition rate %, A single agent (lolium multiflorum; Table 27, A 15 g a.i./ha): 55.5%
- Fresh weight inhibition rate %, A single agent (lolium multiflorum; Table 27, A 20 g a.i./ha): 60.05%
- Fresh weight inhibition rate %, A single agent (lolium multiflorum; Table 27, A 25 g a.i./ha): 77.30%
- Fresh weight inhibition rate %, A single agent (echinochloa crusgalli; Table 17, 15 g a.i./ha, post-emergence, 21 days after treatment): 30.04%
- Fresh weight inhibition rate %, A single agent (echinochloa crusgalli; Table 17, 20 g a.i./ha, post-emergence, 21 days after treatment): 21.43%
- Fresh weight inhibition rate %, A single agent (echinochloa crusgalli; Table 17, 25 g a.i./ha, post-emergence, 21 days after treatment): 19.41%
- Fresh weight inhibition rate %, A single agent (echinochloa crusgalli; Table 37, A 10 g a.i./ha): 19.41%
- Fresh weight inhibition rate %, A single agent (echinochloa crusgalli; Table 37, A 15 g a.i./ha): 21.43%
- Fresh weight inhibition rate %, A single agent (echinochloa crusgalli; Table 37, A 20 g a.i./ha): 30.04%
- Fresh weight inhibition rate %, A single agent (echinochloa crusgalli; Table 37, A 25 g a.i./ha): 38.28%
- Fresh weight inhibition rate %, A single agent (echinochloa crusgalli; Table 44, A 10 g a.i./ha): 19.41%
- Fresh weight inhibition rate %, A single agent (echinochloa crusgalli; Table 44, A 15 g a.i./ha): 21.43%
- Fresh weight inhibition rate %, A single agent (echinochloa crusgalli; Table 44, A 20 g a.i./ha): 30.04%
- Fresh weight inhibition rate %, A single agent (echinochloa crusgalli; Table 44, A 25 g a.i./ha): 38.28%
